Reference: PMC12477080, “Polychlorinated biphenyls (PCBs) interact with drug metabolism in vivo” (Archives of Toxicology, 2025)

Tests used:
CYP1A2 = test: CYP phenotyping cocktail clinical study: caffeine/paraxanthine metabolic ratio and its association with PCB plasma levels
Procedure: The participants were ascertained not to have any acute disease by medical history, physical examination, laboratory screening, including hematological and biochemical blood tests, and a 12-lead electrocardiogram. […] The demographic data of the subjects are summarized in Table 1 in the supplemental data. At the enrollment visit, 2 blood samples (9 ml each) were collected into ethylenediaminetetraacetic acid (EDTA)-containing tubes taken from each subject for analyzing the plasma concentrations of PCB congeners and for pharmacogenetic analysis.
Participants stayed fasted from the evening before until 3 h after drug administration. After that, a meal was provided. Water and juice were permitted but alcoholic and caffeinated beverages were not allowed from the evening before drug administration until the last blood sample was taken on the next day. Venous blood samples (9 ml each) were collected through an intravenous catheter immediately before and 0.25, 0.5, 0.75, 1, 1.5, 2, 2.5, 3, 4, 5, 6, 7, 8, and 24 h after drug administration. Blood was drawn into EDTA-coated tubes, centrifuged at 1500 g for 10 min at 4 °C, and plasma samples were subsequently stored at − 80 °C until further analysis. After completely voiding the bladder immediately before drug administration, the participants collected urine from 0 to 24 h after drug administration. After weighing the collected urine, a 10 ml aliquot of each fraction was taken.
Commercially sourced standards and internal standards were used for quantification (see Supplemental Materials). In brief, 20 µl of the plasma samples were protein-precipitated with 80 µl methanol containing all internal standards or were treated for 16 h at 37 °C with 2 µl β-glucuronidase (1,000,000 Units) for deconjugation before protein precipitation with 78 µl methanol containing internal standards. Samples were centrifuged for 20 min, at 4 °C and 17,000 × g, and 40 µl of the supernatants were diluted with 40 µl LC–MS grade water, centrifuged again for 5 min at 4 °C and 17,000 × g and 50 µl supernatant were transferred to LC–MS vials 5 µl of the samples were injected into the LC–MS system.
An Agilent 1290 Infinity II UHPLC coupled with a SCIEX QTRAP6500 + triple quadrupole mass spectrometer was used. […]
Partial areas under the plasma concentration–time curves from 0 to 3 h (AUC0–3 h), from 0 to 4 h (AUC0–4 h), and from 0 to 8 h (AUC0–8 h) were calculated based on measured concentrations by the linear trapezoidal rule without extrapolation. […] Metabolic ratios (MR) were calculated by dividing the partial AUC of the metabolite by the respective partial AUC of the parent drug. […]

recombinant CYP1A2 = target: T1, recombinant CYP1A2 (Homo sapiens, UniProt P05177); test: Luciferase-based P450-Glo enzyme assay with recombinant CYP1A2; type: biochemical; details: PCB118 1–10 µM; Luciferin–ME substrate; significant at highest concentration (p < 0.0001)
T1 construct: purchased Promega, Madison, WI, USA
T1 sequence (P05177 1-516): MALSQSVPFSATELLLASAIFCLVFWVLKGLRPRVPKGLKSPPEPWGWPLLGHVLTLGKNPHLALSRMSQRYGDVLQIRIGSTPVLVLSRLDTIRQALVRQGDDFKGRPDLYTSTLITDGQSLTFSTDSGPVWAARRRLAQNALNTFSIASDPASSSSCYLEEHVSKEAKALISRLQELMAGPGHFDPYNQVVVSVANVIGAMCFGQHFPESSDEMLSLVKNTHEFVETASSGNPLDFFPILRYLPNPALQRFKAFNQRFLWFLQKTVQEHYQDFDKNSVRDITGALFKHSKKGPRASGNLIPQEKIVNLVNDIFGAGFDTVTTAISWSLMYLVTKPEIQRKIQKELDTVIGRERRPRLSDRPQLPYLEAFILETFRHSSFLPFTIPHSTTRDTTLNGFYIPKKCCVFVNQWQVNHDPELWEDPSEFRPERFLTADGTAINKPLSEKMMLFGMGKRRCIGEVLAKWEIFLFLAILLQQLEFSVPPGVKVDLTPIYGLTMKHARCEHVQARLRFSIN

CYP1A2 mRNA = CYP1A2 mRNA expression in primary human hepatocytes (qRT-PCR); type: cell-based; details: three donors, 48 h exposure, PCB118 0.1–0.5 µM, omeprazole positive control

**Q.** What does the source list for `Clc1ccc(-c2cc(Cl)c(Cl)cc2Cl)cc1Cl` [PCB118]?
**A.** association with CYP1A2 activity in hierarchical generalized mixed model (CYP1A2; adjusted for co-factors (smoking status, gender, BMI, age)): became significant when smoking status was included as a co-factor; proportion of variability in CYP1A2 activity explained (CYP1A2; linear regression, MR paraxanthine/caffeine on PCB118 plasma concentration): ~ 15.5%; effect on CYP1A2 enzyme activity (luminescence) (recombinant CYP1A2): concentration-dependent inhibitory effect; effect on CYP1A2 mRNA expression (CYP1A2 mRNA): did not significantly alter CYP1A2 mRNA levels
